For assay [1], the target named is T1, human recombinant serotonin (5-Hydroxytryptamine) 5-HT2C receptor (Homo sapiens, UniProt P28335).
T1 construct: expressed in transfected cells; host or cells: Chinese hamster ovary (CHO) K1 cells
T1 sequence (P28335 33-458): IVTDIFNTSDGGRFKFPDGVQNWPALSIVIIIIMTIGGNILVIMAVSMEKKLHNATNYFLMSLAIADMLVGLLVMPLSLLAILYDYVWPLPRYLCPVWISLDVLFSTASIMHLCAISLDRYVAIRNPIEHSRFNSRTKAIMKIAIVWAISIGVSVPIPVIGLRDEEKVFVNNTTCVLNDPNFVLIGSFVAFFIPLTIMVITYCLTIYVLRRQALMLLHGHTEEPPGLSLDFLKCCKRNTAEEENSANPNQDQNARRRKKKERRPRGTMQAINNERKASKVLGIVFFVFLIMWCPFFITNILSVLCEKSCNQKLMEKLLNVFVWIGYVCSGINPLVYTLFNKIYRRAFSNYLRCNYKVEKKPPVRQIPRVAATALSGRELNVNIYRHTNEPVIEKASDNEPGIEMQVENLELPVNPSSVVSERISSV
Briefly: Serotonin 5-HT2C radioligand binding ([3H]Mesulergine). Particulars: compound at 0.1 μM; read-out: Percentage inhibition of ligand binding, Serotonin (0.1 μM) 5-HT2C. As to the method: To evaluate in radioligand binding assays the activity of compounds of the invention, human recombinant serotonin (5-Hydroxytryptamine) 5-HT2C receptor expressed in Chinese hamster ovary (CHO) K1 cells (Wolf, W. et al, J. Neurochem. 69:1449, 1997) in a modified Tris-HCl buffer (50 mM Tris-HCl, pH 7.4, 0.1% Ascorbic Acid, 10 μM Pargyline) was used. Compounds of the invention were incubated with 1 nM [^3H]Mesulergine for 60 min at 25° C. Non-specific binding was estimated in the presence of 1 μM Mianserin. Receptor proteins were filtered and washed, the filters were then counted to determine [^3H]Mesulergine specifically bound. Compounds were screened at 1 μM or lower, using 1% DMSO as vehicle. Biochemical assay results are presented as the percent inhibition of specific binding in Table 4.

Assay [2] has as its target T2, human recombinant serotonin (5-Hydroxytryptamine) 5-HT2A receptor (Homo sapiens, UniProt P28223).
T2 construct: expressed in transfected cells; host or cells: Chinese hamster ovary (CHO) K1 cells
Briefly: Serotonin 5-HT2A radioligand binding ([3H]Ketanserin). The following applies: compound at 0.1 μM; read-out: Percentage inhibition of ligand binding, Serotonin (0.1 μM) 5-HT2A. As to the method: To evaluate in radioligand binding assays the activity of compounds of the invention, human recombinant serotonin (5-Hydroxytryptamine) 5-HT2A receptor expressed in Chinese hamster ovary (CHO) K1 cells (Bonhaus, D. et al, Br. J. Pharmacol. 115:622, 1995; Saucier, C. et al, J. Neurochem. 68:1998, 1997) in a 50 mM Tris-HCl buffer, pH 7.4, was used. Compounds of the invention were incubated with 0.5 nM [^3H]Ketanserin for 60 min at 25° C. Non-specific binding was estimated in the presence of 1 μM Mianserin. Receptor proteins were filtered and washed, the filters were then counted to determine [^3H]Ketanserin specifically bound. Compounds were screened at 1 μM or lower, using 1% DMSO as vehicle. Biochemical assay results are presented as the percent inhibition of specific binding in Table 4.

Assay [3] has as its target T3, human recombinant serotonin (5-Hydroxytryptamine) 5-HT6 receptor (Homo sapiens, UniProt P50406).
T3 construct: expressed in transfected cells; host or cells: human HeLa cells
Briefly: Serotonin 5-HT6 radioligand binding ([3H]LSD). Particulars: compound at 0.1 μM; read-out: Percentage inhibition of ligand binding, Serotonin (0.1 μM) 5-HT6. As to the method: To evaluate in radioligand binding assays the activity of compounds of the invention, human recombinant serotonin (5-Hydroxytryptamine) 5-HT6 receptor expressed in human HeLa cells (Monsma, F. Jr. et al, Mol. Pharmacol. 43:320, 1993) in a modified Tris-HCl buffer (50 mM Tris-HCl, pH 7.4, 150 mM NaCl, 2 mM Ascorbic Acid, 0.001% BSA) was used. Compounds of the invention were incubated with 1.5 nM [3H]Lysergic acid diethylamide (LSD) for 120 min at 37° C. Non-specific binding was estimated in the presence of 5 μM Serotonin (5-HT). Receptor proteins were filtered and washed, the filters were then counted to determine [3H]LSD specifically bound. Compounds were screened at 1 μM or lower, using 1% DMSO as vehicle. Biochemical assay results are presented as the percent inhibition of specific binding in Table 4.

In assay [4] the target is T4, human recombinant adrenergic α2C receptor (Homo sapiens, UniProt P18825).
T4 construct: expressed in transfected cells; host or cells: insect Sf9 cells
T4 sequence (P18825 1-462): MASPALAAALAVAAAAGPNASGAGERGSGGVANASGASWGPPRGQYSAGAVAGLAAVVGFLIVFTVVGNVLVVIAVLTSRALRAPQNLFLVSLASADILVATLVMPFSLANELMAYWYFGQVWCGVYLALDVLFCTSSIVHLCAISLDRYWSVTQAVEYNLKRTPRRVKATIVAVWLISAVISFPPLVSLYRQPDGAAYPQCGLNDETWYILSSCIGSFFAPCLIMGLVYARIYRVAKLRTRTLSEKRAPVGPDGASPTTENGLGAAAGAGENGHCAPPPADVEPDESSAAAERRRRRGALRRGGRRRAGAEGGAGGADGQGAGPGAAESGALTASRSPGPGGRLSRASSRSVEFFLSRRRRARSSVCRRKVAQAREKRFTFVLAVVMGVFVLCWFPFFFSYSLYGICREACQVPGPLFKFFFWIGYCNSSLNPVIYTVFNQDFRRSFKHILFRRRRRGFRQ
Briefly: Adrenergic α2C radioligand binding ([3H]MK-912). The following applies: compound at 0.1 μM; read-out: Percentage inhibition of ligand binding, Adrenergic (0.1 μM) a2C. On the procedure: To evaluate in radioligand binding assays the activity of compounds of the invention, human recombinant adrenergic α2C receptor expressed in insect Sf9 cells (Uhlen, S. et al, J. Pharmacol. Exp. Ther. 271:1558, 1994) in a modified Tris-HCl buffer (50 mM Tris-HCl, pH 7.4, 12.5 mM MgCl2, 2 mM EDTA) was used. Compounds of the invention were incubated with 1 nM [^3H]MK-912 for 60 min at 25° C. Non-specific binding was estimated in the presence of 10 μM WB-4101. Receptor proteins were filtered and washed, the filters were then counted to determine [^3H]MK-912 specifically bound. Compounds were screened at 1 μM or lower, using 1% DMSO as vehicle. Biochemical assay results are presented as the percent inhibition of specific binding in Table 3.

T3 sequence (P50406 whole entry): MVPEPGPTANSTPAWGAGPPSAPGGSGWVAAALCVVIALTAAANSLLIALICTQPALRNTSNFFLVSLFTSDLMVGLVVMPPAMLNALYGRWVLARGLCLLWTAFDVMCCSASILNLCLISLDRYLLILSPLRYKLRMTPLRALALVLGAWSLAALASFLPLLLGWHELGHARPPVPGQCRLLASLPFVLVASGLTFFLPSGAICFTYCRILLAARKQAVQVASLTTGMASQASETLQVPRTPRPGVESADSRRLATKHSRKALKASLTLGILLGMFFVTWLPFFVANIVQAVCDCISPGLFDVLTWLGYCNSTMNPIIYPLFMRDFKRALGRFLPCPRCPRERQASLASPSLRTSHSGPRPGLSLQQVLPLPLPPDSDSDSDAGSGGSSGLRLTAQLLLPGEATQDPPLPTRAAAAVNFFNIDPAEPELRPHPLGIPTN
T2 sequence (P28223 whole entry): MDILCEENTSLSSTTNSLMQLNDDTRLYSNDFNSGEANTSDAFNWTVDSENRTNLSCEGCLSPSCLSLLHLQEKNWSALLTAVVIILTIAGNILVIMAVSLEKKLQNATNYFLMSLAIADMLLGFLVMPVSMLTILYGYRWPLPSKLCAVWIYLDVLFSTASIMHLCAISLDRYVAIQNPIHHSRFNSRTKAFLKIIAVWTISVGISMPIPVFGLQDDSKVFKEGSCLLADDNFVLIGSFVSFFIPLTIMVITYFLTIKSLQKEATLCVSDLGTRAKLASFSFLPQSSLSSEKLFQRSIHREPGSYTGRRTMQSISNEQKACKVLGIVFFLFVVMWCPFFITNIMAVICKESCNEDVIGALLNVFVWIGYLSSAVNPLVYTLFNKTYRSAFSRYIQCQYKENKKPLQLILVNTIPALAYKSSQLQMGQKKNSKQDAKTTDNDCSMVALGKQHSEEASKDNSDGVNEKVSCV

As a reminder, the inhibition is the relative decrease from the control value, in per cent. `C#CCC1(C)CN(C)Cc2c1n(C)c1ccc(C)cc21` (centres unmarked) [Compound 47, 2,4,5,8-tetramethyl-4-(prop-2-ynyl)-2,3,4,5-tetrahydro-1H-pyrido[4,3-b]indole]: the inhibition at 0.1 µM in assay [1] stood at 19%; in assay [2], 32%; in assay [3], 14%; in assay [4], 8%.
In the same order, the values of `Cc1ccc2c(c1)c1c(n2C)C(C)(CCc2nc(-c3ccccc3)cs2)CN(C)C1` (centres unmarked) [Compound 48] are 25%, 39%, 22% and 15%.

These data come from patent US20130172320A1, “PYRIDO [4,3-B] INDOLE AND PYRIDO [3,4-B] INDOLE DERIVATIVES AND METHODS OF USE” (priority 2010, published 2013).
